Measurements published in paper PMC3092291 (2011).
pIC50: −log10 of the molar value.

Target: T1, IspH (LytB) (Aquifex aeolicus, UniProt O67625)
T1 sequence (O67625 1-289): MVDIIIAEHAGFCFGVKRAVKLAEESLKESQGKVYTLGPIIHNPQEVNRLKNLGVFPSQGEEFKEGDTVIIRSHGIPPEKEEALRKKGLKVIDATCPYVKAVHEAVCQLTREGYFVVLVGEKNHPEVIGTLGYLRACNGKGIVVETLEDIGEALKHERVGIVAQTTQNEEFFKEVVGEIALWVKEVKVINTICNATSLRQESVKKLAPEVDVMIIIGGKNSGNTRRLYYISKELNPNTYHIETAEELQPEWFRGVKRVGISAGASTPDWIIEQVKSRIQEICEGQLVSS
Test: HYSCORE/CW-EPR with […] and […]-labeled IspH
Format: biochemical

BPH-293 [compound 7]
pIC50: 4.42
